Test results taken from publication PMC12148371 (iScience, 2025).
Like-named read-outs stand apart in the source and are kept apart here.

Assays:
[1] = biological target: GP-RBD-Fc (without the glycan cap and MLD) (Bundibugyo ebolavirus (key resources table); called EBOV in the results); assay: BLI; pH 6.1
[2] = biological target: GP-RBD-Fc (without the glycan cap and MLD) (Bundibugyo ebolavirus (key resources table); called EBOV in the results); assay: BLI; pH 7.4
pseudotyped EBOV = assay: microbe, parasite or virus in culture; format: cell-based, Zaire ebolavirus; conditions: for IC50: read-out: EBOV (IC50)
pseudotyped BDBV = assay: microbe, parasite or virus in culture; format: cell-based, Bundibugyo ebolavirus; conditions: Bundibugyo virus, TZM-bl, read-out: BDBV (IC50)
in vitro = conditions: human
infectious EBOV = assay: microbe, parasite or virus in culture; format: cell-based, Ebola Zaire virus; conditions: Zaire ebolavirus, read-out: Infectious EBOV (IC50)
[3] = test system: NPC1 binding to Ebola GP-RBD; design: species or system Ebola virus
pseudotyped VSV = format: cell-based, vesicular stomatitis virus
pseudotyped A-MLV = format: cell-based, amphotropic murine leukemia virus

Row | Compound | Kd [1] [µM] | Kd [2] [µM] | IC50 (pseudotyped EBOV; Zaire ebolavirus, TZM-bl) [µM] | IC50 (pseudotyped BDBV) [µM] | IC50 (pseudotyped EBOV) [µM] | CC50 (in vitro) [µM] | IC50 (infectious EBOV) [µM] | NPC1 binding remaining (A488+ cells) in presence of competitor [3] [%] | inhibition potency against EBOV, in words (pseudotyped EBOV) | neutralization of pseudotyped VSV (pseudotyped VSV) | neutralization of pseudotyped A-MLV (pseudotyped A-MLV)
1 | human soluble CD4-183 (sCD4-183) two-domain protein (domain or fragment) | 0.36 | 52 | – | – | – | – | – | – | – | – | –
2 | CC1(C)CC(NC(=O)C(=O)Nc2ccc(Br)cc2)CC(C)(C)N1 [NBD-557] | – | – | 19.8 ± 1.7 | 10.6 ± 1.8 | – | – | – | – | – | – | –
3 | CC1(C)CC(NC(=O)C(=O)Nc2cc(F)c(Cl)c(F)c2)CC(C)(C)N1 [DY-III-227] | – | – | 12.1 | 12.1 ± 0.7 | 12.5 ± 1.5 | 68.3 ± 4.3 | – | – | – | – | –
4 | CC1(C)CC(NC(=O)C(=O)Nc2ccc(Cl)cc2)CC(C)(C)N1 [NBD-556] | – | – | 18.2 ± 1 | 16.8 ± 2.1 | – | 67.7 ± 7.3 | 18.8 | 28.36 | – | – | –
5 | CNCc1ccc2c(c1)C[C@H](CNC(=N)N)[C@H]2NC(=O)C(=O)Nc1ccc(Cl)c(F)c1 [BNM-III-170] | – | – | > 30 | – | – | – | – | – | largely reduced | – | –
6 | CC1(C)CC(NC(=O)C(=O)Nc2ccc(Cl)c(F)c2)CC(C)(C)N1 [JRC-II-191] | – | – | 9.52 ± 1.4 | 9.99 ± 1.1 | – | 43.2 ± 6 | 5.25 | 24.29 | – | did not neutralize | did not neutralize
7 | CC1(C)CC(NC(=O)C(=O)Nc2ccc(C(C)(C)C)cc2)CC(C)(C)N1 [Compd N9] | – | – | 9.51 ± 1.6 | 17.6 ± 2.7 | – | > 100 | 9.46 | – | – | – | –
8 | CC1(C)CC(NC(=O)C(=O)Nc2ccc(C(C)(C)C)c(F)c2)CC(C)(C)N1 [DY-III-228] | – | – | 1.98 ± 0.5 | 2.25 ± 0.2 | – | 20.6 ± 2.6 | 0.56 | 30.90 | – | – | –
9 | CC1(C)CC(NC(=O)C(=O)Nc2ccc(C(F)(F)F)c(F)c2)CC(C)(C)N1 [DY-III-226] | – | – | 11.1 | 10.6 ± 0.5 | 11.2 ± 0.8 | 48.4 ± 5.4 | – | – | – | – | –
